According to US4081441A, “Antibacterial agents” (priority 1977, dated 1978):
≈ marks a conversion by molar mass, not a printed value. Like-named read-outs stand apart in the source and are kept apart here.

What was measured:
Pseudomonas aeruginosa [1] = assay: Minimum Inhibitory Concentration, agar dilution, overnight incubation at 37° C.; format: cell-based; conditions: for MIC: Pseudomonas aeruginosa
From the text: A carbenicillin sample was also run for comparative purposes.

Pseudomonas aeruginosa [2] = assay: Minimum Bactericidal Concentration, inoculum 10^4 cells/ml., at least 99% kill; format: cell-based
Description: The bactericidal in vitro activity of sodium D(-)-6-(α-(1,2,4-triazine-3,5-dione-6-carboxamido)-4-hydroxyphenylacetamido)penicillanate (BL-P1908) against several strains of Pseudomonas aeruginosa was determined under two sets of conditions. In one test the Minimum Bactericidal Concentrations (M.B.C.) were determined using an inoculum size of 10^4 cells/ml. and the M.B.C. was defined as the lowest concentration of antibiotic in mcg./ml. needed to kill at least 99% of the viable Pseudomonas cells.

Pseudomonas aeruginosa [3] = assay: Minimum Bactericidal Concentration, inoculum 10^5 cells/ml., at least 99.9% kill; format: cell-based
From the text: The effect of increased inoculum size on the bactericidal activity of BL-P1908 was investigated by a second test in which an inoculum size of 10^5 cells/ml. was used and the M.B.C. was defined as the lowest concentration of antibiotics in mcg./ml. needed to kill at least 99.9% of viable Pseudomonas cells.

[4] = Mouse blood (plasma) antibiotic levels after single intramuscular dose; format: in vivo; conditions: im, 40 mg/kg, mice, 40 mg./kg. i.m., Test 1 (Ave. of 6 mice tested), read-out: Blood Level
Description: Plasma antibiotic levels from mice administered a single intramuscular dose of 40 mg./kg. of BL-[…] or carbenicillin are shown in the following table.

Bacteroides fragilis = assay: M.I.C. against anaerobic bacteria, Bacteroides fragilis; format: cell-based
Cl. acidiurici = assay: M.I.C. against anaerobic bacteria, Cl. acidiurici; format: cell-based; conditions: strain A9560
Cl. cylindrosporum = assay: M.I.C. against anaerobic bacteria, Cl. cylindrosporum; format: cell-based; conditions: strain A9562
Cl. difficile = assay: M.I.C. against anaerobic bacteria, Cl. difficile; format: cell-based; conditions: Clostridioides difficile
Cl. septicum = assay: M.I.C. against anaerobic bacteria, Cl. septicum; format: cell-based; conditions: Clostridium septicum; strain A21869
Cl. perfringens = assay: microbe, parasite or virus in culture; format: cell-based; conditions: Clostridium perfringens
Cl. ramosum = assay: M.I.C. against anaerobic bacteria, Cl. ramosum; format: cell-based; conditions: Thomasclavelia ramosa
Pseudomonas aeruginosa [5] = conditions: prior art; cited from earlier work
Pseudomonas aeruginosa [6] = assay: animal or person; conditions: in Mus musculus, im

CC1(C)S[C@@H]2[C@H](NC(=O)C(C(=O)O)c3ccccc3)C(=O)N2[C@H]1C(=O)O (some centres unmarked) [Carbenicillin, reference compound]
M.I.C. (Pseudomonas aeruginosa [1]): 32 µg/mL
MIC (Pseudomonas aeruginosa [1]; strain A9502): 63 µg/mL (≈ 166 µM)
MIC (Pseudomonas aeruginosa [1]; strain A9827): 32 µg/mL (≈ 84.6 µM)
MIC (Pseudomonas aeruginosa [1]; strain A9910): 32 µg/mL (≈ 84.6 µM)
MIC (Pseudomonas aeruginosa [1]; strain A9923): 63 µg/mL (≈ 166 µM)
MIC (Pseudomonas aeruginosa [1]; strain A9924): 63 µg/mL (≈ 166 µM)
MIC (Pseudomonas aeruginosa [1]; strain A9925): 32 µg/mL (≈ 84.6 µM)
MIC (Pseudomonas aeruginosa [1]; strain A9926): 63 µg/mL (≈ 166 µM)
MIC (Pseudomonas aeruginosa [1]; strain A9930): 63 µg/mL (≈ 166 µM)
MIC (Pseudomonas aeruginosa [1]; strain A9931): 63 µg/mL (≈ 166 µM)
MIC (Pseudomonas aeruginosa [1]; strain A15150): 32 µg/mL (≈ 84.6 µM)
MIC (Pseudomonas aeruginosa [1]; strain A15151): 32 µg/mL (≈ 84.6 µM)
MIC (Pseudomonas aeruginosa [1]; strain A15194): > 125 µg/mL
MIC (Pseudomonas aeruginosa [1]; strain A15195): 63 µg/mL (≈ 166 µM)
MIC (Pseudomonas aeruginosa [1]; strain A15196): 63 µg/mL (≈ 166 µM)
MIC (Pseudomonas aeruginosa [1]; strain A20125): 63 µg/mL (≈ 166 µM)
MIC (Pseudomonas aeruginosa [1]; strain A20126): 16 µg/mL (≈ 42.3 µM)
MIC (Pseudomonas aeruginosa [1]; strain A20127): 63 µg/mL (≈ 166 µM)
MIC (Pseudomonas aeruginosa [1]; strain A20128): 63 µg/mL (≈ 166 µM)
MIC (Pseudomonas aeruginosa [1]; strain A20129): 63 µg/mL (≈ 166 µM)
MIC (Pseudomonas aeruginosa [1]; strain A20130): 63 µg/mL (≈ 166 µM)
MIC (Pseudomonas aeruginosa [1]; strain A20228): 63 µg/mL (≈ 166 µM)
MIC (Pseudomonas aeruginosa [1]; strain A20546): 63 µg/mL (≈ 166 µM)
MIC (Pseudomonas aeruginosa [1]; strain A20557): > 125 µg/mL
MIC (Pseudomonas aeruginosa [1]; strain A20574): 32 µg/mL (≈ 84.6 µM)
MIC (Pseudomonas aeruginosa [1]; strain A20602): 63 µg/mL (≈ 166 µM)
MIC (Pseudomonas aeruginosa [1]; strain A20616): 63 µg/mL (≈ 166 µM)
MIC (Pseudomonas aeruginosa [1]; strain A20641): 63 µg/mL (≈ 166 µM)
MIC (Pseudomonas aeruginosa [1]; strain A20717): > 125 µg/mL
MIC (Pseudomonas aeruginosa [1]; strain A20726): 63 µg/mL (≈ 166 µM)
MIC (Pseudomonas aeruginosa [1]; strain A21336): 63 µg/mL (≈ 166 µM)
MBC (Pseudomonas aeruginosa [2]; strain 9843A): 63 µg/mL (≈ 166 µM)
MBC (Pseudomonas aeruginosa [2]; strain 9910): 32 µg/mL (≈ 84.6 µM)
MBC (Pseudomonas aeruginosa [2]; strain 9926): 63 µg/mL (≈ 166 µM)
MBC (Pseudomonas aeruginosa [2]; strain 20126): 63 µg/mL (≈ 166 µM)
MBC (Pseudomonas aeruginosa [2]; strain 20128): 63 µg/mL (≈ 166 µM)
MBC (Pseudomonas aeruginosa [2]; strain 20227): 63 µg/mL (≈ 166 µM)
MBC (Pseudomonas aeruginosa [2]; strain 20228): 63 µg/mL (≈ 166 µM)
MBC (Pseudomonas aeruginosa [2]; strain 20546): 63 µg/mL (≈ 166 µM)
MBC (Pseudomonas aeruginosa [2]; strain 20557): 250 µg/mL (≈ 661 µM)
MBC (Pseudomonas aeruginosa [2]; strain 20574): 63 µg/mL (≈ 166 µM)
MBC (Pseudomonas aeruginosa [2]; strain 20616): 125 µg/mL (≈ 330 µM)
MBC (Pseudomonas aeruginosa [2]; strain 20641): 125 µg/mL (≈ 330 µM)
MBC (Pseudomonas aeruginosa [2]; strain 20717): 250 µg/mL (≈ 661 µM)
MBC (Pseudomonas aeruginosa [2]; strain 20726): 125 µg/mL (≈ 330 µM)
MBC (Pseudomonas aeruginosa [2]; strain 21336): 63 µg/mL (≈ 166 µM)
MBC (Pseudomonas aeruginosa [3]; strain 9843A): 125 µg/mL (≈ 330 µM)
MBC (Pseudomonas aeruginosa [3]; strain 9910): 125 µg/mL (≈ 330 µM)
MBC (Pseudomonas aeruginosa [3]; strain 9926): 125 µg/mL (≈ 330 µM)
MBC (Pseudomonas aeruginosa [3]; strain 20126): 63 µg/mL (≈ 166 µM)
MBC (Pseudomonas aeruginosa [3]; strain 20128): 125 µg/mL (≈ 330 µM)
MBC (Pseudomonas aeruginosa [3]; strain 20227): 125 µg/mL (≈ 330 µM)
MBC (Pseudomonas aeruginosa [3]; strain 20228): 63 µg/mL (≈ 166 µM)
MBC (Pseudomonas aeruginosa [3]; strain 20546): 250 µg/mL (≈ 661 µM)
MBC (Pseudomonas aeruginosa [3]; strain 20557): 250 µg/mL (≈ 661 µM)
MBC (Pseudomonas aeruginosa [3]; strain 20574): 125 µg/mL (≈ 330 µM)
MBC (Pseudomonas aeruginosa [3]; strain 20602): 250 µg/mL (≈ 661 µM)
MBC (Pseudomonas aeruginosa [3]; strain 20616): 250 µg/mL (≈ 661 µM)
MBC (Pseudomonas aeruginosa [3]; strain 20641): 125 µg/mL (≈ 330 µM)
MBC (Pseudomonas aeruginosa [3]; strain 20717): 1000 µg/mL (≈ 2640 µM)
MBC (Pseudomonas aeruginosa [3]; strain 20726): 250 µg/mL (≈ 661 µM)
MBC (Pseudomonas aeruginosa [3]; strain 21336): 125 µg/mL (≈ 330 µM)
concentration at 0.25 h ([4]; 15 min.): 19100 ng/mL
concentration at 0.5 h ([4]; 30 min.): 12500 ng/mL
concentration at 1 h ([4]; 60 min.): 4000 ng/mL
concentration at 1.5 h ([4]; 90 min.): < 1400 ng/mL
MIC (Bacteroides fragilis; strain A20920): 2 µg/mL (≈ 5.29 µM)
MIC (Bacteroides fragilis; strain A20926): 16 µg/mL (≈ 42.3 µM)
MIC (Bacteroides fragilis; strain A20927-1): 2 µg/mL (≈ 5.29 µM)
MIC (Bacteroides fragilis; strain A20930): 63 µg/mL (≈ 166 µM)
MIC (Bacteroides fragilis; strain A20933): 32 µg/mL (≈ 84.6 µM)
MIC (Bacteroides fragilis; strain A20934): 32 µg/mL (≈ 84.6 µM)
MIC (Bacteroides fragilis; strain A20935): 32 µg/mL (≈ 84.6 µM)
MIC (Bacteroides fragilis; strain A21870): 4 µg/mL (≈ 10.6 µM)
MIC (Bacteroides fragilis; strain A21871): 32 µg/mL (≈ 84.6 µM)
MIC (Bacteroides fragilis; strain A21872): 63 µg/mL (≈ 166 µM)
MIC (Bacteroides fragilis; strain A21875): 16 µg/mL (≈ 42.3 µM)
MIC (Bacteroides fragilis; strain A22053): 63 µg/mL (≈ 166 µM)
MIC (Bacteroides fragilis; strain A27020): > 125 µg/mL
MIC (Cl. acidiurici): 0.5 µg/mL (≈ 1.32 µM)
MIC (Cl. cylindrosporum): 0.5 µg/mL (≈ 1.32 µM)
MIC (Cl. difficile; strain A21675): 32 µg/mL (≈ 84.6 µM)
MIC (Cl. difficile; strain A21972): 32 µg/mL (≈ 84.6 µM)
MIC (Cl. septicum): 1 µg/mL (≈ 2.64 µM)
MIC (Cl. perfringens; strain A21873): 0.5 µg/mL (≈ 1.32 µM)
MIC (Cl. perfringens; strain A21874): 0.5 µg/mL (≈ 1.32 µM)
MIC (Cl. perfringens; strain A21907): 4 µg/mL (≈ 10.6 µM)
MIC (Cl. ramosum; strain A21883): 32 µg/mL (≈ 84.6 µM)
MIC (Cl. ramosum; strain A21970): 32 µg/mL (≈ 84.6 µM)
potency against Pseudomonas aeruginosa (Pseudomonas aeruginosa [5]): relatively low potency
ED50 (Pseudomonas aeruginosa [6]; read-out: PD50 /treatment, P. aeruginosa A9843A, challenge 1 × 10^4, i.m., typical figures based on several tests): 100 mg/kg
ED50 (Pseudomonas aeruginosa [6]; read-out: PD50 /treatment, P. aeruginosa A9843A, challenge 2 × 10^4, i.m., typical figures based on several tests): 100 mg/kg
ED50 (Pseudomonas aeruginosa [6]; read-out: PD50 /treatment, P. aeruginosa A9843A, challenge 3 × 10^4, i.m., at 0 and 2 hours): 130 mg/kg
ED50 (Pseudomonas aeruginosa [6]; read-out: PD50 /treatment, P. aeruginosa A20599, challenge 3 × 10^4, i.m., at 0 and 2 hours): 100 mg/kg
ED50 (Pseudomonas aeruginosa [6]; read-out: PD50 /treatment, P. aeruginosa A20599, challenge 6 × 10^4, i.m., at 0 and 2 hours): 130 mg/kg
